Data on 25 sequences can be found in the OligoGym collection.

For the data set, the target named is SOD1. To be noted: ASO.

Several values for one entry are separate records, joined by “and”; a condition that tells them apart may be missing. Identical values can stand only once. After the bases stand the sugars from the 5' end (letter, count) and the backbone: PS all phosphorothioate, else s phosphorothioate and o phosphodiester by linkage. Methylation of C is not given here. e = 2'-O-(2-methoxyethyl) (MOE); k = constrained ethyl (cEt); d = 2'-deoxy (DNA)

“TGTTTATTGGGCGATCC (sugars e3 k2 d7 k2 e3, PS)” displayed a target mRNA inhibition (HepG2, 3 µM) of 21%.
In the case of “TTAAGTCTGGCAAAATA (sugars e2 k2 d8 k2 e3, PS)”, under “HepG2, 5 µM”, the target mRNA inhibition came to 27%.
With “TTAATGTTTATCAGGAT (sugars e2 k2 d8 k2 e3, PS)”, the target mRNA inhibition is 50% (HepG2, 0.1875 µM); 86% (HepG2, 0.75 µM); 90% (HepG2, 3 µM); 90% (HepG2, 4 µM); 97% (HepG2, 12 µM).
As for “TTAATGTTTATCAGGAT (sugars e2 k2 d9 k2 e2, linkages s1 o3 s9 o1 s2)”, the target mRNA inhibition worked out at 12% (A431, 0.12 µM); 48% (A431, 0.6 µM); 54% (A431, 3 µM); 72% (A431, 15 µM).
Regarding “TTAATGTTTATCAGGAT (sugars ekekddddddddeeeee, linkages s1 o2 s9 o2 s2)”, the target mRNA inhibition runs as follows: (A431, 0.062 µM) 6%; (A431, 0.185 µM) 21%; (A431, 0.556 µM) 44%; (A431, 1.667 µM) 76%; (A431, 5 µM) 68%; (A431, 15 µM) 77%. In addition, the target mRNA inhibition is 0% (SH-SY5Y, 0.062 µM); 0% (SH-SY5Y, 0.185 µM); 34% (SH-SY5Y, 0.556 µM); 61% (SH-SY5Y, 1.667 µM); 81% (SH-SY5Y, 5 µM); 90% (SH-SY5Y, 15 µM).
Turning to “TTACACCACAAGCCAAA (sugars e2 k2 d9 k2 e2, PS)”, the target mRNA inhibition (HepG2, 4 µM) is 63%.
Turning to “TTACAGTGTTTAATGTT (sugars e3 k2 d7 k2 e3, PS)”, the target mRNA inhibition (HepG2, 3 µM) came out at 18%.
For the sequence “TTATTCACAGGCTTGAA (sugars e2 k2 d9 k2 e2, PS)”, the target mRNA inhibition (HepG2, 5 µM) came to 30%.
For “TTATTGGGCGATCCCAA (sugars e3 k2 d7 k2 e3, PS)”, the target mRNA inhibition (HepG2, 3 µM) was found to be 15%.
“TTCACAGGCTTGAATGA (sugars e2 k2 d8 k2 e3, PS)” returned a target mRNA inhibition (HepG2, 5 µM) of 20%.
In the case of “TTCACAGGCTTGAATGA (sugars e3 k2 d7 k2 e3, PS)”, the target mRNA inhibition (HepG2, 3 µM) was found to be 9%.
Same read-out and setting: in the case of “TTCATCCTTTGGCCCACCGT (sugars e5 d10 e5, PS)” it was 30%.
Sequence “TTCCGAGGACTGCAACGGAA (sugars e5 d10 e5, PS)” came in with a target mRNA inhibition (HepG2, 4 µM) of 5%.
Sequence “TTCTACAGCTAGCAGGATAA (sugars e5 d10 e5, PS)” had a target mRNA inhibition (HepG2, 2 µM) of 50%.
The sequence “TTCTGCTCGAAATTGAT (sugars e3 k2 d7 k2 e3, PS)” yielded a target mRNA inhibition (HepG2, 3 µM) of 18%.
Turning to “TTGCCCAAGTCTCCAACATG (sugars e5 d10 e5, PS)”, the target mRNA inhibition (HepG2, 5 µM) was 41% and 33%.
On to “TTGGCCCACCGTGTTTTCTG (sugars e5 d10 e5, PS)”, for which the target mRNA inhibition (HepG2, 5 µM) was 35% and 26%.
Where the note is “HepG2, 3 µM”, “TTTAATACCCATCTGTG (sugars e3 k2 d7 k2 e3, PS)” displayed a target mRNA inhibition of 0%.
“TTTAATGTTTATCAGG (sugars ekddddddddekekee, linkages s1 o1 s8 o3 s2)”: the target mRNA inhibition was 20% (A431, 0.12 µM); 5% (A431, 0.6 µM); 12% (A431, 3 µM); 33% (A431, 15 µM); 21% (HepG2, 0.222 µM); 38% (HepG2, 0.667 µM). In addition, the target mRNA inhibition is, setting by setting: (HepG2, 2 µM) 58%; (HepG2, 6 µM) 81%.
“TTTATTGGGCGATCCCA (sugars e2 k2 d8 k2 e3, PS)” yielded a target mRNA inhibition (HepG2, 4 µM) of 34%.
In turn, “TTTCCTTCTGCTCGAAA (sugars e3 k2 d7 k2 e3, PS)” displayed a target mRNA inhibition (HepG2, 3 µM) of 6%.
Turning to “TTTCTACAGCTAGCAGG (sugars e2 k2 d9 k2 e2, PS)”, the target mRNA inhibition runs as follows: (HepG2, 0.1875 µM) 26%; (HepG2, 0.75 µM) 68%; (HepG2, 3 µM) 89%; (HepG2, 4 µM) 84%; (HepG2, 12 µM) 95%.
For the setting “HepG2, 5 µM”, “TTTCTCACTACAGGTAC (sugars e2 k2 d9 k2 e2, PS)” gave a target mRNA inhibition of 45%.
On the same count and under the same terms, in the case of “TTTTAAGATTACAGTGTTTA (sugars e5 d10 e5, PS)” it was 13%; in that of “TTTTATTCACAGGCTTG (sugars e2 k2 d9 k2 e2, PS)”, 48%.
